Laboratory results published in paper PMC11875992 (Cancer research, 2025).
pEC50: −log10 of the molar value.

Legend:
KRAS G13D = KRAS G13D (Homo sapiens, UniProt P01116, G13D); test: cellular thermal stability assay in HCT-116 lysates, western blot; format: biochemical
KRAS G12C = KRAS G12C (Homo sapiens, UniProt P01116, G12C); test: cellular thermal stability assay; format: cell-based
KRAS G12C, sequence (P01116 2-186 G12C): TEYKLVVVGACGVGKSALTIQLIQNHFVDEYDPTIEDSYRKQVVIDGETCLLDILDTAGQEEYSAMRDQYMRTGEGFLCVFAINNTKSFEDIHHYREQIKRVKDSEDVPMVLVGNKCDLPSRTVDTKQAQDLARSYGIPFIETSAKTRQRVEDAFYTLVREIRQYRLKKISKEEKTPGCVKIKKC

KRAS G13D, sequence (P01116 2-186 G13D): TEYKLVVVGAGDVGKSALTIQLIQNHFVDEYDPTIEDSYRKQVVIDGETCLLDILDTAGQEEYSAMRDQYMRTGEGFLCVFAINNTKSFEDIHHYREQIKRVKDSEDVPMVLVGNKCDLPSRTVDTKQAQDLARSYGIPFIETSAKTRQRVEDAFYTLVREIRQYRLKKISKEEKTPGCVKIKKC

Compound: COc1cc(/C=C2/C(C)=C(CC(=O)NCc3ccco3)c3cc(F)ccc32)cc(OC)c1O [ADT-007, (Z)-2-(5-fluoro-1-(4-hydroxy-3,5-dimethoxybenzylidene)-2-methyl-1H-inden-3-yl)-N-(furan-2-ylmethyl)acetamide]
- pEC50 (KRAS G13D): 9.35
- pEC50 (KRAS G12C): 8.07
